{
  "source": "patent US9580414B2",
  "about": "“Salts and hydrates of antipsychotics” (SHASUN PHARMACEUTICALS LIMITED, priority 2012, dated 2017)",
  "key": {"[1]": {"assay": "Single dose oral pharmacokinetics comparative study of Lurasidone monohydrochloride v. dihydrochloride", "format": "in vivo", "settings": "10 mg/kg, mean plasma, oral gavage, male Sprague Dawley rats", "protocol": "Lurasidone salts mean plasma PK parameters were quantified with an API 3200 LC-MS/MS system and illustrated in Table 1.\nMale Sprague Dawley rats aged 6-8 weeks and weighing 180-220 g will be used for experiment. Animals will be acclimatized for a minimum period of 5 days. Overnight fasted animals were administered the test substance by oral gavage with a dose equivalent dose of 10 mg/kg of the parent compound with ready to use formulation provided and at a dose volume of 10.06 & 9.6 mL/kg b.w. With mild inhalation anesthesia (Isoflurane), blood samples (200-250 μL) were collected by retro-orbital route at specified time points. Lurasidone hydrochloride and dihydrochloride samples were administered by oral route at a dose volume of 10.06 & 9.6 mL/kg body weight respectively. The actual dosage volume for each animal were calculated based on the fasted body weight. All the animals were administered a single dose on the day of experiment. Blood samples were collected in pre-labeled centrifuge tubes containing anticoagulant (K2EDTA). Blood sampling time points for both the groups were as follows Group 1 & 2—Subgroup 1 (n=5)—0.08, 0.16, 0.33, 0.5, 0.67, 0.83, 1.00 & Subgroup 2 (n=5)—1.5, 2, 3, 6, 12, 18, 24 h. All the animals were administered a single dose on the day of experiment. Blood samples were centrifuged at 4000 rpm at 4° C. for 10 minutes and the corresponding plasma samples were harvested into pre-labeled tubes. Plasma samples will be stored at −80° C. until analysis. The blood samples were centrifuged at 4000 rpm for 10 minutes at 4° C. and the corresponding plasma samples were transferred to clean pre-labeled tubes and stored at −80° C. until analysis."}, "[2]": {"assay": "Comparative solubility study in McIlvaine Buffer pH 3.8", "format": "physicochemical", "protocol": "The solubility study was performed for the dihydrochloride salt of the present invention using the McIlvaine Buffer pH 3.8."}, "[3]": {"assay": "Stability by storage under accelerated stability testing conditions", "format": "physicochemical", "settings": "storage at 40° C., 75% RH and 50° C., 90% RH"}, "[4]": {"assay": "Solubility assayed in water", "format": "physicochemical", "settings": "water and mixtures of water with water-miscible solvents; qualitative", "protocol": "In particular, the solubility of the compounds of the present invention in comparison with hydrochloride was assayed in water and recorded."}, "[5]": {"settings": "cited from earlier work"}, "[6]": {"settings": "in vivo; cited from earlier work"}, "[7]": {"assay": "Comparative solubility study in McIlvaine Buffer pH 3.8", "format": "physicochemical", "remark": "listed apart in the source"}, "[8]": {"settings": "male, Sprague Dawley, rat, plasma, po"}, "[9]": {"settings": "listed as Monohydrochloride, hydrochloride"}},
  "note": "Where “and” joins values, the source holds several entries; their conditions need not be identical. Equal values may be shown once. Where a name gives a salt, the structure may show the parent alone. Read-outs that look alike come from different tables or passages of the source.",
  "data": [
    {"smiles": "O=C1[C@@H]2[C@H]3CC[C@H](C3)[C@@H]2C(=O)N1C[C@@H]1CCCC[C@H]1CN1CCN(c2nsc3ccccc23)CC1", "note": "[Di HCl Salt, (3aR,4S,7R,7aS)-2-{(1R,2R)-2-[4-(1,2-benzisothiazol-3-yl)piperazin-1-ylmethyl]cyclohexylmethyl}hexahydro-4,7-methano-2H-isoindole-1,3-dione dihydrochloride dihydrate]", "values": [
      {"measurement": "AUC(0-inf)", "setting": "[1]; [8]", "value": 577, "unit": "ng·h/mL"},
      {"measurement": "AUC(0-t)", "setting": "[1]; [8]", "value": 570, "unit": "ng·h/mL"},
      {"measurement": "Cmax", "setting": "[1]; male, Sprague Dawley, rat, plasma, po, read-out: Cmax", "value": 659, "unit": "ng/mL"},
      {"measurement": "AUCextrap", "setting": "[1]; dihydrochloride dihydrate", "value": 1.29, "unit": "%"},
      {"measurement": "MRTlast", "setting": "[1]; dihydrochloride dihydrate", "value": 1.05, "unit": "h"},
      {"measurement": "T1/2", "setting": "[1]; dihydrochloride dihydrate", "value": 1.07, "unit": "h"},
      {"measurement": "Solubility (mg/ml) Avg.", "setting": "[2]; average of sample 1 and 2, dihydrochloride dihydrate", "value": "0.6472 mg/mL and 0.9020 mg/mL"},
      {"measurement": "Solubility (mg/ml) Sample 1", "setting": "[2]; sample 1, dihydrochloride dihydrate", "value": "0.7220 mg/mL and 0.9548 mg/mL"},
      {"measurement": "Solubility (mg/ml) Sample 2", "setting": "[2]; sample 2, dihydrochloride dihydrate", "value": "0.5724 mg/mL and 0.8498 mg/mL"},
      {"measurement": "stability profile", "setting": "[3]", "value": "excellent stability profile"},
      {"measurement": "solubility in water", "setting": "[4]", "value": "excellent solubility"}
    ]},
    {"smiles": "O=C1[C@@H]2[C@H]3CC[C@H](C3)[C@@H]2C(=O)N1C[C@@H]1CCCC[C@H]1CN1CCN(c2nsc3ccccc23)CC1", "note": "[Mono HCl Salt, (3aR,4S,7R,7aS)-2-[((1R,2R)-2-{[4-(1,2-benzisothiazol-3-yl)-piperazin-1-yl]methyl}cyclohexyl)methyl]hexahydro-1H-4,7-methanisoindol-1,3-dione hydrochloride]", "values": [
      {"measurement": "solubility in 0.1 N HCl", "setting": "[5]; 0.1 N HCl", "value": "practically insoluble"},
      {"measurement": "solubility in water", "setting": "[5]; water", "value": "very slightly soluble"},
      {"measurement": "bioavailability", "setting": "[6]", "value": "less than 12%"},
      {"measurement": "Solubility (mg/ml) Avg.", "setting": "[7]; average of sample 1 and 2, hydrochloride", "value": 0.2126, "unit": "mg/mL"},
      {"measurement": "solubility", "setting": "[7]; listed as Lurasidone hydrochloride", "value": "less than 0.212 mg/ml"},
      {"measurement": "solubility", "setting": "[7]; listed as mono hydrochloride salt", "value": "around 0.212 mg/ml"},
      {"measurement": "Solubility (mg/ml) Sample 1", "setting": "[7]; sample 1, hydrochloride", "value": 0.2104, "unit": "mg/mL"},
      {"measurement": "Solubility (mg/ml) Sample 2", "setting": "[7]; sample 2, hydrochloride", "value": 0.2148, "unit": "mg/mL"},
      {"measurement": "MRT last", "setting": "[1]; [8]", "value": 0.95, "unit": "h"},
      {"measurement": "half-life", "setting": "[1]; [8]", "value": 1.19, "unit": "h"},
      {"measurement": "AUCextrap", "setting": "[1]; [9]", "value": 1.37, "unit": "%"},
      {"measurement": "AUCinf", "setting": "[1]; [9]", "value": 357.32, "unit": "ng·h/mL"},
      {"measurement": "AUClast", "setting": "[1]; [9]", "value": 352.41, "unit": "ng·h/mL"},
      {"measurement": "Cmax", "setting": "[1]; [9]", "value": 412.39, "unit": "ng/mL"},
      {"measurement": "Tmax", "setting": "[1]; rat", "value": 0.33, "unit": "h"}
    ]}
  ]
}
